Measured values published in patent US7605163B2, “Benzoyl-piperazine derivatives” (Hoffmann-La Roche Inc., priority 2003, dated 2009).

Each compound was assayed against T1, mGlyT-1b (Mus musculus, UniProt P28571) (assay: Glycine Uptake Inhibition Assay (mGlyT-1b)). Conditions: [3H]-glycine uptake inhibition at GlyT-1, Flp-in-CHO cells transfected with mGlyT-1b cDNA.
T1 construct: host or cells: Flp-in-CHO cells
T1 sequence (P28571 1-651 isoform P28571-2): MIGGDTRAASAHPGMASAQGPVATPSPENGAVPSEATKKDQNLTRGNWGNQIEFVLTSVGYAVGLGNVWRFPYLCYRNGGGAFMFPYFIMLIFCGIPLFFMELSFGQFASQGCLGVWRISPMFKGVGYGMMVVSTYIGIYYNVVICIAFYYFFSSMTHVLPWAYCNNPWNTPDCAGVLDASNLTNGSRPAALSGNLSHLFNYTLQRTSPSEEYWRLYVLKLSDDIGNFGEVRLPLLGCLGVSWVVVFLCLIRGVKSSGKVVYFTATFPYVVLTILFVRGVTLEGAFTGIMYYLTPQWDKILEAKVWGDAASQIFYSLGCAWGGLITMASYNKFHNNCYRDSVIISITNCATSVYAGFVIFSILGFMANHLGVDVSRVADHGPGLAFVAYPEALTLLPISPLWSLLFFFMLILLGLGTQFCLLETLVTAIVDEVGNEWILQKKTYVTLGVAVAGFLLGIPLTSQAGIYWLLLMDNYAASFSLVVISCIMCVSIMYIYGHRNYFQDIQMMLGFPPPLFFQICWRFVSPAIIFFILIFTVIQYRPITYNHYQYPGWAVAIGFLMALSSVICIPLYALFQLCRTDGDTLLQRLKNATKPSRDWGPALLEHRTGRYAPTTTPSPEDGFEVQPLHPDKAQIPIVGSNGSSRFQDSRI
Assay type: cell-based
Method: DMEM complete medium: Nutrient mixture F-12 (Gibco Life-technologies), fetal bovine serum (FBS) 5%, (Gibco life technologies), Penicillin/Streptomycin 1% (Gibco life technologies), Hygromycin 0.6 mg/ml (Gibco life technologies), Glutamine 1 mM Gibco life technologies)
Uptake buffer (UB): 150 mM NaCl, 10 mM Hepes-Tris, pH 7.4, 1 mM CaCl2, 2.5 mM KCl, 2.5 mM MgSO4, 10 mM (+) D-glucose. Flp-in™-CHO (Invitrogen Cat n^o R758-07) cells stably transfected with mGlyT1b cDNA.
Glycine Uptake Inhibition Assay (mGlyT-1b)
On day 1 mammalian cells, (Flp-in™-CHO), transfected with mGlyT-1b cDNA, were plated at the density of 40,000 cells/well in complete F-12 medium, without hygromycin in 96-well culture plates. On day 2, the medium was aspirated, and the cells were washed twice with uptake buffer (UB). The cells were then incubated for 20 min at 22° C. with either (i) no potential competitor, (ii) 10 mM non-radioactive glycine, (iii) a concentration of a potential inhibitor. A range of concentrations of the potential inhibitor was used to generate data for calculating the concentration of inhibitor resulting in 50% of the effect (e.g. IC50, the concentration of the competitor inhibiting glycine uptake of 50%).
A solution was then immediately added containing [^3H]-glycine 60 nM (11-16 Ci/mmol) and 25 μM non-radioactive glycine. The plates were incubated with gentle shaking, and the reaction was stopped by aspiration of the mixture and washing (three times) with ice-cold UB. The cells were lysed with scintillation liquid, shaken 3 hours and the radioactivity in the cells counted using a scintillation counter.

Point of comparison: CS(=O)(=O)c1ccc(OC2CCC2)c(C(=O)N2CCN(c3ccc(C#N)cc3F)CC2)c1 [compound 313], IC50 0.018 µM. Against it:
- CS(=O)(=O)c1ccc(OCC2CC2)c(C(=O)N2CCN(c3cc(F)c(C#N)c(F)c3)CC2)c1 [compound 170] — 1.7-fold higher, 0.031 µM
- CS(=O)(=O)c1ccc(OC2CCCC2)c(C(=O)N2CCN(c3cc(F)c(C#N)c(F)c3)CC2)c1 [compound 172] — within 1.5-fold, 0.019 µM
- CS(=O)(=O)c1ccc(OCC(F)(F)C(F)(F)F)c(C(=O)N2CCN(c3ccc(C#N)c(F)c3)CC2)c1 [compound 180] — 2-fold higher, 0.036 µM
- CS(=O)(=O)c1ccc(OCC(F)(F)C(F)(F)F)c(C(=O)N2CCN(c3ccc(C(F)(F)F)cc3)CC2)c1 [compound 182] — 1.7-fold higher, 0.03 µM
- CS(=O)(=O)c1ccc(OCC(F)(F)C(F)(F)F)c(C(=O)N2CCN(c3ccc(C#N)c(F)c3F)CC2)c1 [compound 184] — within 1.5-fold, 0.022 µM
- CS(=O)(=O)c1ccc(OCC(F)(F)C(F)(F)F)c(C(=O)N2CCN(c3c(F)cc(C#N)cc3F)CC2)c1 [compound 186] — 2.7-fold higher, 0.048 µM
- CS(=O)(=O)c1ccc(OC(CF)CF)c(C(=O)N2CCN(c3ccc(C(F)(F)F)cc3C#N)CC2)c1 [compound 194] — 2.6-fold higher, 0.047 µM
- CC(C)(C)Oc1ccc(S(C)(=O)=O)cc1C(=O)N1CCN(c2ccc(C#N)c(F)c2F)CC1 [compound 196] — 2.3-fold higher, 0.041 µM
- CC(C)Oc1ccc(S(C)(=O)=O)cc1C(=O)N1CCN(c2ccc(Cl)cc2C#N)CC1 [compound 202] — within 1.5-fold, 0.024 µM
- CS(=O)(=O)c1ccc(OCC(F)(F)C(F)F)c(C(=O)N2CCN(c3ccc(C#N)c(F)c3)CC2)c1 [compound 209] — 2.3-fold higher, 0.041 µM
- CS(=O)(=O)c1ccc(OCC(F)(F)C(F)F)c(C(=O)N2CCN(c3ccc(C#N)cc3F)CC2)c1 [compound 210] — 2.2-fold higher, 0.039 µM
- CS(=O)(=O)c1ccc(OCC(F)(F)C(F)F)c(C(=O)N2CCN(c3ccc(C(F)(F)F)cc3)CC2)c1 [compound 211] — 2.4-fold higher, 0.043 µM
- CS(=O)(=O)c1ccc(OCC(F)(F)C(F)F)c(C(=O)N2CCN(c3ccc(C(F)(F)F)cc3F)CC2)c1 [compound 212] — 1.6-fold higher, 0.029 µM
- CS(=O)(=O)c1ccc(OCC(F)(F)C(F)F)c(C(=O)N2CCN(c3ccc(C#N)c(F)c3F)CC2)c1 [compound 213] — within 1.5-fold, 0.021 µM
- CS(=O)(=O)c1ccc(OCC(F)(F)C(F)F)c(C(=O)N2CCN(c3c(F)cc(C#N)cc3F)CC2)c1 [compound 215] — 2.7-fold higher, 0.049 µM
- CS(=O)(=O)c1ccc(OCC2CC2)c(C(=O)N2CCN(c3ccc(Cl)cc3C#N)CC2)c1 [compound 228] — 2.6-fold higher, 0.047 µM
- CC(C)(C)Oc1ccc(S(C)(=O)=O)cc1C(=O)N1CCN(c2cc(F)c(C#N)cc2F)CC1 [compound 234] — 2.4-fold higher, 0.043 µM
- CC(C)(C)Oc1ccc(S(C)(=O)=O)cc1C(=O)N1CCN(c2ccc(C#N)cc2F)CC1 [compound 244] — 2.3-fold higher, 0.042 µM
- CC(C)(C)Oc1ccc(S(C)(=O)=O)cc1C(=O)N1CCN(c2ccc(C(F)(F)F)cc2F)CC1 [compound 247] — 1.7-fold higher, 0.03 µM
- CC(C)(C)Oc1ccc(S(C)(=O)=O)cc1C(=O)N1CCN(c2cc(F)c(S(C)(=O)=O)cc2F)CC1 [compound 249] — 1.8-fold higher, 0.032 µM
- CC(C)(C)Oc1ccc(S(C)(=O)=O)cc1C(=O)N1CCN(c2c(F)cc(S(C)(=O)=O)cc2F)CC1 [compound 250] — 3.4-fold higher, 0.061 µM
- CS(=O)(=O)c1ccc(OCC(F)(F)F)c(C(=O)N2CCN(c3ccc(Cl)c(Cl)c3)CC2)c1 [compound 251] — 1.8-fold higher, 0.032 µM
- CC(=O)c1ccc(N2CCN(C(=O)c3cc(S(C)(=O)=O)ccc3OC3CCCCC3)CC2)c(F)c1 [compound 281] — within 1.5-fold, 0.021 µM
- CS(=O)(=O)c1ccc(OC2CCCCC2)c(C(=O)N2CCN(c3ccc(C#N)cc3)CC2)c1 [compound 282] — 1.5-fold higher, 0.027 µM
- CS(=O)(=O)c1ccc(OC2CCCCC2)c(C(=O)N2CCN(c3ccc(C#N)cc3F)CC2)c1 [compound 283] — 2.2-fold lower, 0.008 µM
- CS(=O)(=O)c1ccc(OC2CCCCC2)c(C(=O)N2CCN(c3ccc(C#N)c(F)c3)CC2)c1 [compound 284] — 1.8-fold lower, 0.01 µM
- CS(=O)(=O)c1ccc(OC2CCCCC2)c(C(=O)N2CCN(c3ccc(C(F)(F)F)cc3)CC2)c1 [compound 285] — 2.3-fold higher, 0.042 µM
- CS(=O)(=O)c1ccc(OC2CCCCC2)c(C(=O)N2CCN(c3ccc(C(F)(F)F)c(F)c3)CC2)c1 [compound 287] — 1.8-fold higher, 0.033 µM
- CS(=O)(=O)c1ccc(N2CCN(C(=O)c3cc(S(C)(=O)=O)ccc3OC3CCCCC3)CC2)c(F)c1 [compound 288] — within 1.5-fold, 0.025 µM
- CC(C)(C)COc1ccc(S(C)(=O)=O)cc1C(=O)N1CCN(c2ccc(C#N)cc2)CC1 [compound 290] — within 1.5-fold, 0.017 µM
- CC(C)(C)COc1ccc(S(C)(=O)=O)cc1C(=O)N1CCN(c2ccc(C#N)cc2F)CC1 [compound 291] — within 1.5-fold, 0.013 µM
- CC(C)(C)COc1ccc(S(C)(=O)=O)cc1C(=O)N1CCN(c2ccc(C#N)c(F)c2)CC1 [compound 292] — within 1.5-fold, 0.021 µM
- CC(C)(C)COc1ccc(S(C)(=O)=O)cc1C(=O)N1CCN(c2ccc(C(F)(F)F)cc2)CC1 [compound 293] — 1.9-fold higher, 0.034 µM
- CC(C)(C)COc1ccc(S(C)(=O)=O)cc1C(=O)N1CCN(c2ccc(C(F)(F)F)cc2F)CC1 [compound 294] — 2.1-fold higher, 0.037 µM
- CC(C)(C)COc1ccc(S(C)(=O)=O)cc1C(=O)N1CCN(c2ccc(C(F)(F)F)c(F)c2)CC1 [compound 295] — within 1.5-fold, 0.016 µM
- CC(C)(C)COc1ccc(S(C)(=O)=O)cc1C(=O)N1CCN(c2ccc(S(C)(=O)=O)cc2F)CC1 [compound 296] — 2.4-fold higher, 0.043 µM
- CC(Oc1ccc(S(C)(=O)=O)cc1C(=O)N1CCN(c2ccc(C(F)(F)F)cc2)CC1)C(F)(F)F (centres unmarked) [compound 301] — 1.7-fold higher, 0.03 µM
- CC(=O)c1ccc(N2CCN(C(=O)c3cc(S(C)(=O)=O)ccc3OC3CCC3)CC2)c(F)c1 [compound 311] — 2.5-fold higher, 0.045 µM
- CS(=O)(=O)c1ccc(OC2CCC2)c(C(=O)N2CCN(c3ccc(C(F)(F)F)c(F)c3)CC2)c1 [compound 317] — 2.3-fold higher, 0.041 µM
- CC(C)Oc1ccc(S(C)(=O)=O)cc1C(=O)N1CCN(c2ccc(C(F)(F)F)cc2C#N)CC1 [compound 363] — 2.2-fold lower, 0.008 µM
- CC(=O)c1ccc(N2CCN(C(=O)c3cc(S(C)(=O)=O)ccc3OC(C)C)CC2)cc1F [compound 367] — 2-fold higher, 0.036 µM
- CC(=O)c1ccc(N2CCN(C(=O)c3cc(S(C)(=O)=O)ccc3OCC3CC3)CC2)cc1F [compound 369] — 1.8-fold higher, 0.032 µM
- CC(C)COc1ccc(S(C)(=O)=O)cc1C(=O)N1CCN(c2ccc(S(C)(=O)=O)c(F)c2)CC1 [compound 371] — 2.3-fold higher, 0.041 µM
- CC(=O)c1ccc(N2CCN(C(=O)c3cc(S(C)(=O)=O)ccc3OCC(C)C)CC2)cc1F [compound 372] — 3-fold lower, 0.006 µM
- CS(=O)(=O)c1ccc(OC2CCCC2)c(C(=O)N2CCN(c3ccc(C(F)(F)F)cc3C#N)CC2)c1 [compound 373] — 1.9-fold higher, 0.035 µM
- CC(C)COc1ccc(S(C)(=O)=O)cc1C(=O)N1CCN(c2ccc(C(F)(F)F)cc2C#N)CC1 [compound 375] — 1.9-fold higher, 0.035 µM
- CCS(=O)(=O)c1ccc(OC(C)C)c(C(=O)N2CCN(c3ccc(C(F)(F)F)cc3F)CC2)c1 [compound 393] — 1.8-fold higher, 0.032 µM
- CC(C)Oc1ccc(S(C)(=O)=O)cc1C(=O)N1CCN(c2ccc(C(F)F)cc2F)CC1 [compound 400] — within 1.5-fold, 0.023 µM
- CS(=O)(=O)c1ccc(OC2CCCC2)c(C(=O)N2CCN(c3ccc(C#N)cn3)CC2)c1 [compound 411] — 2.5-fold higher, 0.045 µM
- CS(=O)(=O)c1ccc(OC2CCCC2)c(C(=O)N2CCN(c3ccc(C(F)(F)F)cn3)CC2)c1 [compound 412] — 1.8-fold higher, 0.033 µM
- CS(=O)(=O)c1ccc(OC2CCCC2)c(C(=O)N2CCN(c3ncc(C(F)(F)F)cc3Cl)CC2)c1 [compound 413] — 1.7-fold higher, 0.03 µM
- CC(C)Oc1ccc(S(C)(=O)=O)cc1C(=O)N1CCN(c2ncc(C(F)(F)F)cc2Cl)CC1 [compound 417] — 2.6-fold higher, 0.046 µM
- CS(=O)(=O)c1ccc(OC2CCCC2)c(C(=O)N2CCN(c3ccc(C(F)(F)F)nc3)CC2)c1 [compound 430] — 2.1-fold higher, 0.037 µM
- CC(C)Oc1ccc(S(C)(=O)=O)cc1C(=O)N1CCN(c2ncc(C(F)(F)F)cc2F)CC1 [compound 437] — within 1.5-fold, 0.026 µM
- CS(=O)(=O)c1ccc(OC2CCCC2)c(C(=O)N2CCN(c3ncc(C(F)(F)F)cc3F)CC2)c1 [compound 439] — within 1.5-fold, 0.021 µM
